Measured values taken from patent US20210205292A1, “INHIBITORS OF CREB-CBP INTERACTION FOR TREATMENT OF LEUKEMIA” (The Board of Trustees of the Leland Stanford Junior …, priority 2016, published 2021).

Legend:
[1] = test system: Bcl-2, Mcl-1, Bcl-XL expression in HL-60 cells; test: RT-PCR and Western blot of anti-apoptotic proteins in HL-60 cells; assay type: cell-based, human; set-up: transcription of Bcl-2: dose or concentration left out as unconfirmed
Experimental: Total RNA was isolated using the Aurum RNA Isolation Mini Kit, and the iScript cDNA Synthesis Kit was used to prepare samples for qPCR (Bio-Rad). PCR was performed on the CFX384 Real-Time System (Bio-Rad) and results were analyzed using the Livak method. For analysis of RNA-seq data as target genes of known transcription factors, a curated list of all human target genes was extracted from the TRANSFAC Pro database.
Cells were lysed in RIPA buffer (Sigma), and the protein concentrations were determined by BCA assay (Thermo Scientific Pierce). Lysates were solubilized in 6×SDS PAGE buffer and […] of protein was loaded into 6-15% SDS PAGE gels, pheresed, and then transferred onto […] PVDF membrane (Millipore). Primary antibodies were applied at a dilution of 1:1000. Anti-Bcl-2, -Bax, -Mcl-1, -Bcl-XL, -Cyclin A and -Cyclin D1 antibodies were purchased from Cell Signaling Technologies. Anti-total acetylated histone and -ac-H3K27 were purchased from Santa Cruz Biotechnologies. Anti-actin and -CREB antibodies were purchased from upstate. Secondary antibodies were used at a 1:2500 dilution and purchased from Thermo Scientific/Pierce. WesternBright ECL was used for image acquisition on Image Lab software (Bio-Rad).
The balance between pro- and anti-apoptotic protein expression contributes to cell fate decisions. CREB regulates the expression of several anti-apoptotic proteins, including Bcl-2, Bcl-XL and Mcl-1. Bcl-2 expression in particular is known to mediate resistance to chemotherapy and influence clinical outcome in a number of cancer types, including AML. The ability of Compound A to cause apoptosis by disrupting the CREB-driven expression of these anti-apoptotic proteins was examined. In HL-60 cells treated with Compound A, apoptosis is induced in a dose- and time-dependent manner. […] Compound A elicited apoptosis through the intrinsic apoptosis pathway, with activation of Caspase-3 (FIG. 5, panel B) and detectable Caspase-9 cleavage (data not shown). […]

CREB target genes = test: RT-PCR of CREB target genes in GFP+ bone marrow cells of engrafted NSG mice; assay type: in vivo, mouse; settings: 2.3 mg/kg, three once-daily treatments after ten-day engraftment
Experimental: To directly evaluate the effects of Compound A on CREB transcriptional activity in vivo, six NSG mice were injected with 2×10^6 HL-60 expressing GFP. After a ten-day engraftment period, the mice received three once-daily treatments of either 2.3 mg/kg Compound A or DMSO. The mice were then sacrificed and GFP+ bone marrow cells were sorted and analyzed for transcriptional changes in validated CREB target genes. This experiment recapitulated in vitro findings (FIG. 4, panel E).

[2] = test system: human AML patient sample cells (#186); test: Primary AML patient sample (#186) xenograft in NSG mice; assay type: in vivo; settings: 2.3 mg/kg IV once daily
Experimental: For AML xenograft mouse experiments, HL-60 cells (2×10^6) expressing firefly luciferase and GFP, or cryopreserved human AML patient cells (5×10^6), were injected through the tail vein into NOD.Cg-prkdc^scid Il2rg^tm1WjlSzJ (NSG) mice. Mice were then Compound A or 10% DMSO, injected intravenously by tail vein daily, until death or an endpoint was reached (moribundity) in accordance with the animal care institutional guidelines. All mouse experiments were subject to institutional approval by Stanford University Institutional Animal Care and Use Committee. Leukemia progression in mice at the indicated time points was monitored using an in vivo IVIS 100 bioluminescenceoptical imaging system (Xenogen Corporation). D-Luciferin (Promega) dissolved in sterile phosphate-buffered saline was injected intraperitoneally at a dose of […], 15 minutes before measuring the luminescent signal. General anesthesia was induced with […] and continued during the procedure using a nose cone. […]
To examine the efficacy of CREB inhibition in an in vivo model of AML, 4-6 week old NOD.Cg-Prkdc^scid Il2rg^tm1WjlSzJ (NSG) mice were tail-vein injected with HL-60 AML cells (2×10^6) expressing Firefly luciferase and GFP. […] The efficacy of Compound A was also assessed in a mouse xenograft model using primary AML cell sample (patient sample #186), using similar methods.

N#Cc1ccc(NC(=O)c2cc3ccccc3cc2O)cc1 [Compound A, N-(4-cyanophenyl)-3-hydroxy-2-naphthamide]
Bcl-XL expression [1]: remained constant
expression of Mcl-1 [1]: initially increased, then decreased at 72 hours
transcription of Bcl-2 ([1]; 72 hours): decreased
expression of CREB target genes in vivo (RT-PCR) (CREB target genes): significantly reduced expression of all genes shown
toxicity ([2]; 80 days): None of the mice treated for 80 days experienced any toxicity
survival (Kaplan-Meier) ([2]; versus DMSO-treated mice): significant survival advantage
